Measured values from patent US20030022821A1, “Bioactive peptides” (priority 1998, published 2003).
Values after ≈ are worked out from the molar mass of the structure shown. Like-named read-outs stand apart in the source and are kept apart here. Ends that are not written are not given here. Peptide text beside a SMILES is read from it. * marks the point of attachment. Acm = CC(=O)NC*

Columns and labels:
Type in all cases: cell-based
[1] = test system: Escherichia coli ATCC 25922
Description: (§1) The bacterial strains used were: Escherichia coli ATCC 25922 and Staphylococcus aureus ATCC 25923. All strains were stored at −70° C. The bacteria were grown in 2% Bacto Peptone water (Difco 1807-17-4). All tests were performed with bacteria in mid-logarithmic growth phase. Determination of the minimum inhibitory concentration (MIC) of the peptides for bacterial strains were performed in 1% Bacto Peptone water. A standard microdilution technique with an inoculum of 2×10^6 CFU/ml was used. All assays were performed in triplets. Since the peptides are positively charged and therefore could adhere to the plastic wells, we controlled the actual concentration of the peptides in the solution by HPLC. There was no difference between the concentration of the peptides before or after adding the solution to the plastic wells.

[2] = test system: Staphylococcus aureus ATCC 25923
Description: as §1

human red blood cells = test: Hemolytic assay; conditions: for % Hemolysis 10 μg/ml / % Hemolysis 100 μg/ml: red cells of human
Description: The hemolytic activities of the peptides were determined using fresh human red blood cells. 8 ml blood was taken from a healthy person. 4 ml blood was transferred to a polycarbonate tube containing heparin to a final concentration of 10 U/ml, and the remaining 4 ml blood was transferred to a glass tube containing EDTA with final concentration of 15% EDTA. The erythrocytes were isolated from heparin-treated blood by centrifugation in 1500 rpm for 10 min and washed three times with phosphate-buffered saline (PBS) to remove plasma and buffy coat. The cell pellet was resuspended in PBS to make the final volume of 4 ml. The peptide was diluted to a concentration of 2 mg/ml and 0.1 mg/ml. The peptide was further diluted to the concentrations as stated in Table 15. For each tube PBS was added first, then RBCs and peptide solutions. The hematocrit in the blood treated with EDTA was determined after 30 min with Sysmex K-1000, and the resuspended RBCs were diluted into 10% hematocrit. RBCs in PBS (1%) with and without peptides (Table 15) were incubated in a shaker at […] for 1 hour and then centrifuged at 4000 rpm for 5 min. The supernatant were carefully transferred to new polycarbonate tubes and the absorbance of the supernatant was measured at 540 nm. Baseline hemolysis was hemoglobin released in the presence of PBS, and 100% hemolysis was hemoglobin released in the presence of 0.1% Triton X-100.

CSCC[C@H](NC(=O)[C@H](CCC(=O)O)NC(=O)[C@H](Cc1c[nH]c2ccccc12)NC(=O)[C@H](CCC(N)=O)NC(=O)[C@H](Cc1c[nH]c2ccccc12)NC(=O)[C@H](CCCNC(=N)N)NC(=O)[C@H](CC(C)C)NC(=O)[C@H](CSCNC(C)=O)NC(=O)[C@H](CCCCN)NC(=O)[C@H](C)N)C(=O)N[C@@H](CCCNC(=N)N)C(=O)N[C@@H](CCCCN)C(=O)N[C@H](C(=O)NCC(=O)NCC(=O)O)C(C)C [LFM A1 W8] (H-AKC(Acm)LRWQWEMRKVGG-OH; N-terminus assumed)
MIC E. coli ([1]; ATCC 25922): 750 µg/mL (≈ 391 µM)
MIC S. aureus ([2]; ATCC 25923): >1000 µg/mL
% Hemolysis 10 μg/ml (human red blood cells): 2.4%
% Hemolysis 100 μg/ml (human red blood cells): 3%

CSCC[C@H](NC(=O)[C@H](CCCNC(=N)N)NC(=O)[C@H](Cc1c[nH]c2ccccc12)NC(=O)[C@H](CCC(N)=O)NC(=O)[C@H](Cc1c[nH]c2ccccc12)NC(=O)[C@H](CCCNC(=N)N)NC(=O)[C@H](CC(C)C)NC(=O)[C@H](CSCNC(C)=O)NC(=O)[C@H](CCCCN)NC(=O)[C@@H](N)CCC(=O)O)C(=O)N[C@@H](CCCNC(=N)N)C(=O)N[C@@H](CCCCN)C(=O)N[C@H](C(=O)NCC(=O)NCC(=O)O)C(C)C [LFM R9 W8] (H-EKC(Acm)LRWQWRMRKVGG-OH; N-terminus assumed)
MIC E. coli ([1]; ATCC 25922): 500 µg/mL (≈ 249 µM)
MIC S. aureus ([2]; ATCC 25923): >1000 µg/mL
% Hemolysis 10 μg/ml (human red blood cells): 3.1%
% Hemolysis 100 μg/ml (human red blood cells): 4.59%

CSCC[C@H](NC(=O)[C@H](CCCNC(=N)N)NC(=O)[C@H](Cc1c[nH]c2ccccc12)NC(=O)[C@H](CCC(N)=O)NC(=O)[C@H](Cc1ccc2ccccc2c1)NC(=O)[C@H](CCCNC(=N)N)NC(=O)[C@H](CCCNC(=N)N)NC(=O)[C@H](CSCNC(C)=O)NC(=O)[C@H](CCCCN)NC(=O)[C@@H](N)Cc1ccccc1)C(=O)N[C@@H](CCCCN)C(=O)N[C@@H](CCCCN)C(=O)N[C@@H](CC(C)C)C(=O)NCC(=O)N[C@@H](C)C(=O)O [LFB Nal6]
MIC E. coli ([1]; ATCC 25922): 20 µg/mL (≈ 9.63 µM)
MIC S. aureus ([2]; ATCC 25923): 75 µg/mL (≈ 36.1 µM)
% Hemolysis 10 μg/ml (human red blood cells): 2.2%
% Hemolysis 100 μg/ml (human red blood cells): 4.4%

CSCC[C@H](NC(=O)[C@H](CCCNC(=N)N)NC(=O)[C@H](Cc1c[nH]c2ccccc12)NC(=O)[C@H](CCC(N)=O)NC(=O)[C@H](Cc1c[nH]c2ccccc12)NC(=O)[C@H](CCCNC(=N)N)NC(=O)[C@H](CC(C)C)NC(=O)[C@H](CSCNC(C)=O)NC(=O)[C@H](CCCCN)NC(=O)[C@@H](N)CCCNC(=N)N)C(=O)N[C@@H](CCCNC(=N)N)C(=O)N[C@@H](CCCCN)C(=O)N[C@H](C(=O)NCC(=O)NCC(=O)O)C(C)C [LFM R1, 9 W8] (H-RKC(Acm)LRWQWRMRKVGG-OH; N-terminus assumed)
MIC E. coli ([1]; ATCC 25922): 25 µg/mL (≈ 12.3 µM)
MIC S. aureus ([2]; ATCC 25923): 75 µg/mL (≈ 36.9 µM)
% Hemolysis 10 μg/ml (human red blood cells): 3.69%

CSCC[C@@H](NC(=O)[C@@H](CCCCN)NC(=O)[C@@H](CCCCN)NC(=O)[C@@H](CC(C)C)NC(=O)CNC(=O)[C@@H](C)N)C(=O)N[C@H](CCCNC(=N)N)C(=O)N[C@H](Cc1c[nH]c2ccccc12)C(=O)N[C@H](CCC(N)=O)C(=O)N[C@H](Cc1c[nH]c2ccccc12)C(=O)N[C@H](CCCNC(=N)N)C(=O)N[C@H](CCCNC(=N)N)C(=O)N[C@H](CSCNC(C)=O)C(=O)N[C@H](CCCCN)C(=O)N[C@H](Cc1ccccc1)C(=O)O [Retro-Enantio LFB 17-31]
MIC E. coli ([1]; Table 3): 6.25 µg/mL (≈ 3.03 µM)
MIC S. aureus ([2]; Table 3, unit assumed): 80 µg/mL (≈ 38.7 µM)
% Hemolysis 10 μg/ml (human red blood cells): 3.31%

YRAWRWAWRWR-NH2 [LFB 17-27 A3, 7 R2, 11 W4, 10 Y1 NH2, TYR-ARG-ALA-TRP-ARG-TRP-ALA-TRP-ARG-TRP-ARG-CONH2]
MIC E. coli ([1]; Table 14, peptides with a proportion of D amino acids): 10 µg/mL
MIC S. aureus ([2]; Table 14): 2.5 µg/mL
EC50 (human red blood cells): 400 ± 200 µM
EC 50 (human red blood cells; Table 13, toxicity (hemolysis)): 700 ± 300 µg/mL

CSCC[C@H](NC(=O)[C@H](CCCCN)NC(=O)[C@H](CCCCN)NC(=O)[C@H](CC(C)C)NC(=O)CNC(=O)[C@H](C)N)C(=O)N[C@@H](CCCNC(=N)N)C(=O)N[C@@H](Cc1c[nH]c2ccccc12)C(=O)N[C@@H](CCC(N)=O)C(=O)N[C@@H](Cc1c[nH]c2ccccc12)C(=O)N[C@@H](CCCNC(=N)N)C(=O)N[C@@H](CCCNC(=N)N)C(=O)N[C@@H](CSCNC(C)=O)C(=O)N[C@@H](CCCCN)C(=O)N[C@@H](Cc1ccccc1)C(=O)O [Retro LFB 17-31]
MIC E. coli ([1]; Table 3): 80 µg/mL (≈ 38.7 µM)
MIC S. aureus ([2]; Table 3, unit assumed): 200 µg/mL (≈ 96.8 µM)
% Hemolysis 10 μg/ml (human red blood cells): 2.01%

CSCC[C@H](NC(=O)[C@H](CCC(=O)O)NC(=O)[C@H](Cc1c[nH]c2ccccc12)NC(=O)[C@H](CCC(N)=O)NC(=O)[C@H](Cc1c[nH]c2ccccc12)NC(=O)[C@H](CCCNC(=N)N)NC(=O)[C@H](CC(C)C)NC(=O)[C@H](CSCNC(C)=O)NC(=O)[C@H](CCCCN)NC(=O)[C@@H](N)CCCNC(=N)N)C(=O)N[C@@H](CCCNC(=N)N)C(=O)N[C@@H](CCCCN)C(=O)N[C@H](C(=O)NCC(=O)NCC(=O)O)C(C)C [LFM R1, W8] (H-RKC(Acm)LRWQWEMRKVGG-OH; N-terminus assumed)
MIC E. coli ([1]; ATCC 25922): 75 µg/mL (≈ 37.4 µM)
MIC S. aureus ([2]; ATCC 25923): 500 µg/mL (≈ 249 µM)
% Hemolysis 10 μg/ml (human red blood cells): 2.8%
% Hemolysis 100 μg/ml (human red blood cells): 3.48%

CSCC[C@H](NC(=O)[C@H](CCCNC(=N)N)NC(=O)[C@H](Cc1c[nH]c2ccccc12)NC(=O)[C@H](CCC(N)=O)NC(=O)[C@H](Cc1c[nH]c2ccccc12)NC(=O)[C@H](CCCNC(=N)N)NC(=O)[C@H](Cc1ccccc1)NC(=O)[C@H](CSCNC(C)=O)NC(=O)[C@H](CCCCN)NC(=O)[C@@H](N)Cc1ccccc1)C(=O)N[C@@H](CCCCN)C(=O)N[C@@H](CCCCN)C(=O)N[C@@H](CC(C)C)C(=O)NCC(=O)N[C@@H](C)C(=O)O [LFB F4] (H-FKC(Acm)FRWQWRMKKLGA-OH; N-terminus and C-terminus assumed)
MIC E. coli ATCC 25922 ([1]; ATCC 25922): 20 µg/mL
MIC E. coli ATCC 25922 ([1]; Table 1, value in brackets): 10 µM
MIC E. coli ([1]; Table 12): 20 µg/mL (≈ 9.73 µM)
MIC S. aureus ATCC 25923 ([2]; ATCC 25923): 200 µg/mL
MIC S. aureus ATCC 25923 ([2]; Table 1, value in brackets): 100 µM
MIC S. aureus ([2]; Table 12): 200 µg/mL (≈ 97.3 µM)
% Hemolysis 10 μg/ml (human red blood cells): 2.4%
% Hemolysis 100 μg/ml (human red blood cells): 3.2%

H-FKARRWAWRMKKLGA-OH [LFB A3, 7]
EC 50 (human red blood cells): >1000 µg/mL
EC50 (human red blood cells): > 525 µM

YRMWRWAWRWR-NH2 [LFB 17-27 A7 M3 R2, 11 W4, 10 Y1 NH2]
EC50 (human red blood cells): 291 ± 91 µM
EC 50 (human red blood cells; Table 13, toxicity (hemolysis)): 510 ± 160 µg/mL

LFH Pmc: human lactoferricin with Pmc attached to the only available tryptophan
MIC E. coli ([1]; Table 5): 25 µg/mL
MIC S. aureus ([2]; Table 5, unit assumed): 50 µg/mL

CSCC[C@H](NC(=O)[C@H](C)NC(=O)[C@H](Cc1c[nH]c2ccccc12)NC(=O)[C@H](CCC(N)=O)NC(=O)[C@H](Cc1c[nH]c2ccccc12)NC(=O)[C@H](CCCNC(=N)N)NC(=O)[C@H](CCCNC(=N)N)NC(=O)[C@H](CSCNC(C)=O)NC(=O)[C@H](CCCCN)NC(=O)[C@@H](N)Cc1ccccc1)C(=O)N[C@@H](CCCCN)C(=O)N[C@@H](CCCCN)C(=O)N[C@@H](CC(C)C)C(=O)NCC(=O)N[C@@H](C)C(=O)O [LFB A9] (H-FKC(Acm)RRWQWAMKKLGA-OH)
MIC E. coli ([1]; ATCC 25922): 55 µg/mL (≈ 27.8 µM)
MIC S. aureus ([2]; ATCC 25923): >200 µg/mL

CSCC[C@H](NC(=O)[C@H](CCCNC(=N)N)NC(=O)[C@H](Cc1c[nH]c2ccccc12)NC(=O)[C@H](CCC(N)=O)NC(=O)[C@H](Cc1c[nH]c2ccccc12)NC(=O)[C@H](CCCNC(=N)N)NC(=O)[C@H](CCCNC(=N)N)NC(=O)[C@H](CSCNC(C)=O)NC(=O)[C@H](CCCCN)NC(=O)[C@@H](N)CCCCN)C(=O)N[C@@H](CCCCN)C(=O)N[C@@H](CCCCN)C(=O)N[C@@H](CC(C)C)C(=O)NCC(=O)N[C@@H](C)C(=O)O [LFB K1] (H-KKC(Acm)RRWQWRMKKLGA-OH; N-terminus assumed)
MIC E. coli ATCC 25922 ([1]; ATCC 25922): 60 µg/mL
MIC E. coli ATCC 25922 ([1]; Table 1, value in brackets): 30 µM
MIC E. coli ([1]; Table 12): 60 µg/mL (≈ 29.3 µM)
MIC S. aureus ATCC 25923 ([2]; ATCC 25923): 100 µg/mL
MIC S. aureus ATCC 25923 ([2]; Table 1, value in brackets): 50 µM
MIC S. aureus ([2]; Table 12): 100 µg/mL (≈ 48.9 µM)

CSCC[C@H](NC(=O)[C@H](CCC(=O)O)NC(=O)[C@H](Cc1c[nH]c2ccccc12)NC(=O)[C@H](CCC(N)=O)NC(=O)[C@H](Cc1c[nH]c2ccccc12)NC(=O)[C@H](CCCNC(=N)N)NC(=O)[C@H](CC(C)C)NC(=O)[C@H](CSCNC(C)=O)NC(=O)[C@H](CCCCN)NC(=O)[C@@H](N)CCC(=O)O)C(=O)N[C@@H](CCCNC(=N)N)C(=O)N[C@@H](CCCCN)C(=O)N[C@@H](Cc1ccc(O)cc1)C(=O)NCC(=O)NCC(=O)O [LFM W8 Y13] (H-EKC(Acm)LRWQWEMRKYGG-OH; N-terminus and C-terminus assumed)
MIC E. coli ([1]; ATCC 25922): >1000 µg/mL
MIC S. aureus ([2]; ATCC 25923): >1000 µg/mL

RRWQWRMKKLGA-OH [LFB 20-31]
MIC E. coli ATCC 25922 ([1]; ATCC 25922): 100 µg/mL
MIC E. coli ATCC 25922 ([1]; Table 1, value in brackets): 62 µM
MIC E. coli ([1]; Table 11): 100 µg/mL
MIC S. aureus ATCC 25923 ([2]; ATCC 25923): 200 µg/mL
MIC S. aureus ATCC 25923 ([2]; Table 1, value in brackets): 124 µM
MIC S. aureus ([2]; Table 11): 200 µg/mL
